Values joined by “and” are separate entries in the source; they are usually repeats but may differ in a detail not shown here. Equal values may be shown once. Ends that are not written are not given here.

Consider 19 molecules from patent publication US20030119070A1, “Reagents for cell selection and methods of use” (Nexell Therapeutics, Inc., priority 2000, published 2003).

Test [1] relates to anti-CD2 antibody B-E2. Nature of the test: FACS competition assay of peptides for binding of anti-CD2 antibody B-E2 to T cells. Particulars: 1 mM peptide, 1×10^6 MNC, 15 min room temperature; FIG. 3. How it is done: Peptides having affinity for the CD2 monoclonal antibody B-E2 were isolated by phage display biopanning. Various peptides were tested as competitors for binding of T cells to the anti-CD2 antibody B-E2. A competition assay was performed using 1 mM of each peptide. The peptides were at 2×10^7 fold molar excess relative to the competitor CD2 antigen and at 6×10^6 fold molar excess relative to anti-CD2 antibody. Competition was measured using a FACS competition assay (see FIG. 3).
For the competition assay, 0.5 ml of a 1 mM solution of various peptides was added to 1×10^6 peripheral blood mononuclear cells (MNC) followed by the addition of 100 μl of 0.02 μg/ml of CD2 antibody (B-E2) and incubated for 15 min at room temperature. Cells were washed once in lysing reagent (155 mM ammonium chloride, 10 mM potassium bicarbonate, and 0.1 mM EDTA) and twice in 2 ml of PAH (DPBS, 1% human serum albumin, 0.02% NaN3). 1 μl of goat F(ab′)2 fragment anti-mouse IgG (heavy+light)-phycoerythrin conjugated (GAM-PE; Immunotech; Miami Fla.) was added to each sample and incubated for 10 min at room temperature. Cells were washed twice in 2 ml of PAH. The final cell pellet was resuspended in 0.25 ml of 0.5% paraformaldehyde. The samples were analyzed by flow cytometry.

Test [2] has as its system anti-CD2 antibody B-E2. Nature of the test: FACS release assay of cells bound to anti-CD2 antibody using peptides. The class given is binding. The note with it: 1 mM or 5 mM peptide, 30 min room temperature, in some cases 1 mM DTT; FIG. 4. Here is the method:
Several of the peptides were further tested for release activity. Briefly, the FACS release assay was performed by incubating 1×10^6 MNC with 100 μl of 0.02 μg/ml of CD2 antibody for 15 min at room temperature. Cells were washed once with 2 ml of lysing reagent and twice with 2 ml of PAH solution. 0.5 ml of a 1 mM or 5 mM peptide stock was added to the cell pellet and incubated at room temperature for 30 min. Cells were washed twice in 2 ml of PAH. 1 μl of GAM-PE was added to each sample and incubated for 10 min at room temperature. Cells were washed twice in 2 ml of PAH. The final cell pellet was resuspended in 0.25 ml of 0.5% paraformaldehyde. The samples were analyzed by flow cytometry.
In the release assay, either 1 mM or 5 mM peptide (1 mM peptide except where indicated to be 5 mM in FIG. 4). In some cases, the release assay was performed in the presence of 1 mM dithiothreitol (DTT). The assay was performed with two different batches of donor cells (second batch of donor cells designated with “*” in FIG. 4).

Test [3] addresses biotinylated 9C5 antibody (anti-human CD34 monoclonal antibody). Nature of the test: cell-based or functional assay.

ACKQF: the “competition for binding of the anti-CD2 antibody B-E2 to cells” value (“competition for binding” for short) in the test with anti-CD2 antibody B-E2 [1] is “compete for binding”.
For ACKQFACKQF, the “competition for binding” value in the test with anti-CD2 antibody B-E2 [1] is “compete for binding”.
On the same count and under the same terms, under ACKQFDFC stands “compete for binding”.
On the same count and under the same terms, under ACKQFDFCNDH stands “compete for binding”; under ACKQFDFCNDHWSK, “compete for binding”.
For ACKQFDFCNDHWSKSQH, the “competition for binding” value in the test with anti-CD2 antibody B-E2 [1] is listed as “compete for binding”.
Take ACKQFN: the “competition for binding” value in the test on anti-CD2 antibody B-E2 [1] is given as “compete for binding”.
Turning to ACKQFNNDV, the “competition for binding” value with anti-CD2 antibody B-E2 [1] is listed as “compete for binding”.
On the same count and under the same terms, under ACKQFNNDVTCN stands “compete for binding”; under ACKQFNNDVTCNAAEGDD, “compete for binding”.
Consider ACKQFNNDVTCNKRH, for which, in the test with anti-CD2 antibody B-E2 [1], the “competition for binding” value is recorded as “compete for binding”.
On the same count and under the same terms, then ACKQLHSVSGCR, with “compete for binding”.
For ACKRPP, the “competition for binding” value with anti-CD2 antibody B-E2 [1] is given as “compete for binding”.
Same read-out and setting: under ACKRPPVSLTCH stands “compete for binding”; under ASKQF, “compete for binding”; under KCHPNMSLKECH, “compete for binding”.
For the molecule RCRRPATTPACR, the “competition for binding” value in the test on anti-CD2 antibody B-E2 [1] is on record as “compete for binding”. For the same molecule, the “release activity (release of T cells bound to anti-CD2 antibody)” value with anti-CD2 antibody B-E2 [2] is “highest release activity”.
In the case of RCRRPATTPACRACKQF, in the test on anti-CD2 antibody B-E2 [1], the “competition for binding” value was “compete for binding”.
Take Ac-QQGWFPKD [free PR34+ peptide Ac-QQGWFPKD (SEQ ID NO:2)]: in test [3], the % SUP-T1 Yield after release with free peptide (tube 2) came to 43%; the % SUP-T1 Yield after release with free peptide (tube 3) amounted to 31%; the % T-cells released by 9069N 2.5 mg (CD2-9069N 1 µg, b-9069 1 µg) stood at 71%; the % T-cells released by 9069N 2.5 mg (CD2-9069N 1 µg, b-9069 10 µg) is 87% and 65%. Further, in test [3], the % T-cells released by 9069N 2.5 mg (CD2-9069N 5 µg, b-9069 1 µg) is 61% and 56%; the % T-cells released by 9069N 2.5 mg (CD2-9069N 5 µg, b-9069 10 µg) is 50%; the % Yield after release with PR34+ 2.5 mg (streptavidin coated Dynabead control) was 81.5%; the % Yield of CD8+ cells after release with free peptide (condition 3) worked out at 16%.
